The values that follow come from patent US20250042937A1, “RAPID, GREEN, DISULFIDE BOND FORMATION IN WATER USING DICYANOCOBINAMIDE” (Syracuse University, priority 2023, published 2025).

The subject of one series is rat retinas. The settings on record: low doses (2-5%); cited from earlier work.
In the next series the target is T1, oxytocin receptor (Homo sapiens, UniProt P30559).
T1 sequence (P30559 1-389): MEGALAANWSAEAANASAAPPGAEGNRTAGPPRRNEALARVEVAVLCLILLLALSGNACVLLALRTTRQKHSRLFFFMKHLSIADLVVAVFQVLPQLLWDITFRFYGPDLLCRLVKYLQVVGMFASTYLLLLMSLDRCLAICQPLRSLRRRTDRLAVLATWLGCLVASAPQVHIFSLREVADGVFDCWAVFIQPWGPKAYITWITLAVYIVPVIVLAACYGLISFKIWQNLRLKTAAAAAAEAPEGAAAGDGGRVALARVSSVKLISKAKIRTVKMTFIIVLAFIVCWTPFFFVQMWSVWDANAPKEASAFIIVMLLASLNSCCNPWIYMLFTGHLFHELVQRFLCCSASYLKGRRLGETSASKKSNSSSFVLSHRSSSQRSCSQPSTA
Put plainly: screening at the oxytocin receptor (agonism) after Cbi oxidation. The series is classed as cell-based. The settings on record: peptide oxidized with Cbi; free or conjugated to B12.

On to `C[S+](C)[O-]` [DMSO, dimethyl sulfoxide], for which the cytotoxicity entry in the series with rat retinas was “cytotoxic”.
With `CC[C@H](C)[C@@H]1NC(=O)[C@H](Cc2ccc(O)cc2)NC(=O)[C@@H](N)CSSC[C@@H](C(=O)N2CCC[C@H]2C(=O)N[C@@H](CCCCN=[N+]=[N-])C(=O)NCC(N)=O)NC(=O)[C@H](CC(N)=O)NC(=O)[C@H](CCC(N)=O)NC1=O` [OT], at oxytocin receptor, the Kd (commonly the constant that tells how readily two partners part at equilibrium) came to 4.39 nM.
The same measure, in the same setting: the same measure for “OT after conjugation to B12: OT peptide conjugated to vitamin B12”: 4.63 nM.
